The values below come from patent EP3888661A1, “COMPOSITIONS COMPRISING 2 -FUCOSYLLACTOSE TO PREVENT VIRAL INFECTIONS” (FrieslandCampina Nederland B.V., priority 2020, dated 2021).

Structures are written as SMILES.

The conditions of series [1]: cited from earlier work.
For series [2], the system named is anaerobic microbiota from human origin. In words: TIM-2 in vitro fermentation model of the human colon, SCFA/acetate production. From the text:
The in vitro fermentation studies were done using the TIM-2 model. This is a validated, dynamic, computer-controlled model that simulates the human colon, mimicking body temperature, lumen pH, absorption of water and microbial metabolites through a semipermeable membrane inside the model, mixing and transporting the intestinal contents with peristaltic movements, using an anaerobic microbiota from human origin, it corresponds basically to the model as described in Minekus, M., etal. Appl. Microbiol. Biotechnol. 1999 53, 108-114. doi: 10.1007/ s002530051622 and Kortman et al., Frontiers in Microbiology 2016, 6, 1481. Characteristics of the movements of the contents in the TIM-2 system was simulated using an increase of the pH and peristaltic movements of the contents in the system using peristaltic pumps as described in Minekus, M (1998. Development and validation of a dynamic model of the gastrointestinal tract. PhD thesis, Delft University of Technology, The Netherlands).
SCFA analysis was performed at Brightlabs B.V., Venlo, The Netherlands), according to (Sáyago-Ayerdi SG, et al. Food Research International, E-pub date 13 December 2017; Sayago Ayerdi et al Food Research International 118 (2019) 89-95). […]
Samples (1 mL) were taken for Short Chain Fatty Acid (SCFA) analysis after 1, 2, 4, 6, 8 and 24 h after test product insertion; cumulative absolute amounts of SCFA were determined. […]

In the case of `C[C@@H]1O[C@@H](O[C@H]2[C@H](O[C@H]3[C@H](O)[C@@H](O)C(O)O[C@@H]3CO)O[C@H](CO)[C@H](O)[C@@H]2O)[C@@H](O)[C@H](O)[C@@H]1O` (stereo partly drawn) [2'-FL, 2'-Fucosyllactose], the “daily dosage tested as safe” value in series [1] is 20 g. Also, the acetate production in series [2] (7.5 gram test product as single shot, cumulative acetate produced between 8 and 24 hours after insertion, representing the distal colon, pooled fecal microbiota of 20 healthy subjects) is 17 mmol; in series [2] (fecal microbiota samples of lean and of obese subjects in the TIM-2 model system), “An increase in the acetate production was observed”.
